Laboratory results taken from patent US20140116103A1, “FOLIARLY APPLICABLE SILICON NUTRITION COMPOSITIONS & METHODS” (priority 2008, published 2014).

Experiments:
[1] = system: Bipolaris oryzae; format: in vivo, Bipolaris oryzae on rice; details: A, B, C, F compared to control, D compared to A
[2] = generally accepted limit; cited from earlier work

| SMILES | necrotic lesions on leaves (number and size) [1] | limit of solubility in water [2] |
| --- | --- | --- |
| CC1COC(Cn2cncn2)(c2ccc(Oc3ccc(Cl)cc3)cc2Cl)O1 (centres unmarked) [Composition F, diphenoconazole] | complete absence of lesions |  |
| O[Si](O)(O)O [monosilicic acid] |  | about 2 mM |
